# Assay results from ChEMBL document CHEMBL5724806, “Unraveling interindividual differences and functional consequences of gut microbial metabolism of immunosuppressants” (2024).
# Columns and labels:
# Assay type in all cases: ADME
# [1] = (§1) The drug is tested on the gut metagenome community of A-01 with ENA study accession number: PRJEB31790 for biotransformation under anaerobic condition. The drug concentrations were measured over 7 timepoints collected between 0 and 12 hours of incubation by liquid-chromatography-coupled mass spectrometry (LC–MS); design: dose 5 uM, timepoint 0, 0.75, 1.5, 3, 6, 9, 12 hours; details: 5 µM
# [2] = The drug is tested on Bacteroides thetaiotaomicron strain: DSM2079 for biotransformation under anaerobic condition. The drug concentrations were measured over 6 timepoints collected between 0 and 12 hours of incubation by liquid-chromatography-coupled mass spectrometry (LC–MS); design: dose 5 uM, timepoint 0, 1.5, 3, 6, 9, 12 hours; details: 5 µM
# [3] = The drug is tested on Lactobacillus paracasei strain: ATCC27092 for biotransformation under anaerobic condition. The drug concentrations were measured over 6 timepoints collected between 0 and 12 hours of incubation by liquid-chromatography-coupled mass spectrometry (LC–MS); design: dose 5 uM, timepoint 0, 1.5, 3, 6, 9, 12 hours; details: lacticaseibacillus paracasei, 5 µM
# [4] = as §1, with “A-10” for “A-01”; design: dose 5 uM, timepoint 0, 0.75, 1.5, 3, 6, 9, 12 hours; details: 5 µM
# [5] = The drug is tested on Gemella haemolysans strain: DSM107751 for biotransformation under anaerobic condition. The drug concentrations were measured over 6 timepoints collected between 0 and 12 hours of incubation by liquid-chromatography-coupled mass spectrometry (LC–MS); design: dose 5 uM, timepoint 0, 1.5, 3, 6, 9, 12 hours; details: 5 µM
# [6] = The drug is tested on Escherichia coli strain: DSM27469 for biotransformation under anaerobic condition. The drug concentrations were measured over 6 timepoints collected between 0 and 12 hours of incubation by liquid-chromatography-coupled mass spectrometry (LC–MS); design: dose 5 uM, timepoint 0, 1.5, 3, 6, 9, 12 hours; details: 5 µM
# [7] = as §1, with “P-01” for “A-01”; design: dose 5 uM, timepoint 0, 0.75, 1.5, 3, 6, 9, 12 hours; details: 5 µM
# [8] = as §1, with “P-03” for “A-01”; design: dose 5 uM, timepoint 0, 0.75, 1.5, 3, 6, 9, 12 hours; details: 5 µM
# [9] = The drug is tested on Alloscardovia omnicolens strain: DSM21503 for biotransformation under microaerobic condition. The drug concentrations were measured over 6 timepoints collected between 0 and 12 hours of incubation by liquid-chromatography-coupled mass spectrometry (LC–MS); design: dose 5 uM, timepoint 0, 1.5, 3, 6, 9, 12 hours; details: 5 µM
# [10] = The drug is tested on Streptococcus anginosus strain: DSM20563 for biotransformation under microaerobic condition. The drug concentrations were measured over 6 timepoints collected between 0 and 12 hours of incubation by liquid-chromatography-coupled mass spectrometry (LC–MS); design: dose 5 uM, timepoint 0, 1.5, 3, 6, 9, 12 hours; details: 5 µM
# [11] = as §1, with “P-04” for “A-01”, “microaerobic” for “anaerobic”; design: dose 5 uM, timepoint 0, 0.75, 1.5, 3, 6, 9, 12 hours; details: 5 µM
# [12] = The drug is tested on Lactobacillus reuteri strain: DSM20016 for biotransformation under anaerobic condition. The drug concentrations were measured over 6 timepoints collected between 0 and 12 hours of incubation by liquid-chromatography-coupled mass spectrometry (LC–MS); design: dose 5 uM, timepoint 0, 1.5, 3, 6, 9, 12 hours; details: limosilactobacillus reuteri, 5 µM
# [13] = The drug is tested on Gemella morbillorum strain: DSM20572 for biotransformation under microaerobic condition. The drug concentrations were measured over 6 timepoints collected between 0 and 12 hours of incubation by liquid-chromatography-coupled mass spectrometry (LC–MS); design: dose 5 uM, timepoint 0, 1.5, 3, 6, 9, 12 hours; details: 5 µM
# [14] = as §1, with “A-02” for “A-01”, “microaerobic” for “anaerobic”; design: dose 5 uM, timepoint 0, 0.75, 1.5, 3, 6, 9, 12 hours; details: 5 µM
# [15] = The drug is tested on Lactobacillus ruminis strain: ATCC25644 for biotransformation under anaerobic condition. The drug concentrations were measured over 6 timepoints collected between 0 and 12 hours of incubation by liquid-chromatography-coupled mass spectrometry (LC–MS); design: dose 5 uM, timepoint 0, 1.5, 3, 6, 9, 12 hours; details: ligilactobacillus ruminis, 5 µM
# [16] = The drug is tested on Alloscardovia omnicolens strain: DSM21503 for biotransformation under anaerobic condition. The drug concentrations were measured over 6 timepoints collected between 0 and 12 hours of incubation by liquid-chromatography-coupled mass spectrometry (LC–MS); design: dose 5 uM, timepoint 0, 1.5, 3, 6, 9, 12 hours; details: 5 µM
# [17] = as §1, with “A-03” for “A-01”, “microaerobic” for “anaerobic”; design: dose 5 uM, timepoint 0, 0.75, 1.5, 3, 6, 9, 12 hours; details: 5 µM
# [18] = The drug is tested on Lactobacillus gasseri strain: DSM20243 for biotransformation under anaerobic condition. The drug concentrations were measured over 6 timepoints collected between 0 and 12 hours of incubation by liquid-chromatography-coupled mass spectrometry (LC–MS); design: dose 5 uM, timepoint 0, 1.5, 3, 6, 9, 12 hours; details: 5 µM
# [19] = The drug is tested on Streptococcus sanguinis strain: DSM20567 for biotransformation under microaerobic condition. The drug concentrations were measured over 6 timepoints collected between 0 and 12 hours of incubation by liquid-chromatography-coupled mass spectrometry (LC–MS); design: dose 5 uM, timepoint 0, 1.5, 3, 6, 9, 12 hours; details: 5 µM
# [20] = The drug is tested on Clostridium scindens strain: DSM5676 for biotransformation under anaerobic condition. The drug concentrations were measured over 6 timepoints collected between 0 and 12 hours of incubation by liquid-chromatography-coupled mass spectrometry (LC–MS); design: dose 5 uM, timepoint 0, 1.5, 3, 6, 9, 12 hours; details: 5 µM
# [21] = as §1, with “T-02” for “A-01”; design: dose 5 uM, timepoint 0, 0.75, 1.5, 3, 6, 9, 12 hours; details: 5 µM
# [22] = as §1, with “P-02” for “A-01”; design: dose 5 uM, timepoint 0, 0.75, 1.5, 3, 6, 9, 12 hours; details: 5 µM
# [23] = as §1, with “T-03” for “A-01”, “microaerobic” for “anaerobic”; design: dose 5 uM, timepoint 0, 0.75, 1.5, 3, 6, 9, 12 hours; details: 5 µM
# [24] = The drug is tested on Clostridium ramosum strain: DSM1402 for biotransformation under anaerobic condition. The drug concentrations were measured over 6 timepoints collected between 0 and 12 hours of incubation by liquid-chromatography-coupled mass spectrometry (LC–MS); design: dose 5 uM, timepoint 0, 1.5, 3, 6, 9, 12 hours; details: thomasclavelia ramosa, 5 µM
# [25] = The drug is tested on Bacteroides vulgatus strain: DSM1447 for biotransformation under anaerobic condition. The drug concentrations were measured over 6 timepoints collected between 0 and 12 hours of incubation by liquid-chromatography-coupled mass spectrometry (LC–MS); design: dose 5 uM, timepoint 0, 1.5, 3, 6, 9, 12 hours; details: phocaeicola vulgatus, 5 µM
# [26] = The drug is tested on Lactobacillus fermentum strain: DSM20052 for biotransformation under anaerobic condition. The drug concentrations were measured over 6 timepoints collected between 0 and 12 hours of incubation by liquid-chromatography-coupled mass spectrometry (LC–MS); design: dose 5 uM, timepoint 0, 1.5, 3, 6, 9, 12 hours; details: limosilactobacillus fermentum, 5 µM
# [27] = The drug is tested on Akkermansia muciniphila strain: DSM22959 for biotransformation under anaerobic condition. The drug concentrations were measured over 6 timepoints collected between 0 and 12 hours of incubation by liquid-chromatography-coupled mass spectrometry (LC–MS); design: dose 5 uM, timepoint 0, 1.5, 3, 6, 9, 12 hours; details: 5 µM
# [28] = as §1, with “A-04” for “A-01”; design: dose 5 uM, timepoint 0, 0.75, 1.5, 3, 6, 9, 12 hours; details: 5 µM
# [29] = as §1, with “microaerobic” for “anaerobic”; design: dose 5 uM, timepoint 0, 0.75, 1.5, 3, 6, 9, 12 hours; details: 5 µM
# [30] = The drug is tested on Lactobacillus reuteri strain: DSM20016 for biotransformation under microaerobic condition. The drug concentrations were measured over 6 timepoints collected between 0 and 12 hours of incubation by liquid-chromatography-coupled mass spectrometry (LC–MS); design: dose 5 uM, timepoint 0, 1.5, 3, 6, 9, 12 hours; details: limosilactobacillus reuteri, 5 µM
Bacterial Biotransformation [1],Bacterial Biotransformation [2],Bacterial Biotransformation [3],Bacterial Biotransformation [4],Bacterial Biotransformation [6],Bacterial Biotransformation [7],Bacterial Biotransformation [8],Bacterial Biotransformation [9],Bacterial Biotransformation [10],Bacterial Biotransformation [11],Bacterial Biotransformation [12],Bacterial Biotransformation [13],Bacterial Biotransformation [14],Bacterial Biotransformation [15],Bacterial Biotransformation [16],Bacterial Biotransformation [17],Bacterial Biotransformation [18],Bacterial Biotransformation [19],Bacterial Biotransformation [20],SMILES,Bacterial Biotransformation [5],other results
Compound NOT metabolized,Compound NOT metabolized,Compound NOT metabolized,Compound NOT metabolized,Compound NOT metabolized,Compound NOT metabolized,Compound NOT metabolized,Compound NOT metabolized,Compound NOT metabolized,Compound NOT metabolized,Compound NOT metabolized,Compound NOT metabolized,Compound NOT metabolized,Compound NOT metabolized,Compound NOT metabolized,Compound NOT metabolized,Compound NOT metabolized,Compound NOT metabolized,Compound NOT metabolized,NS(=O)(=O)c1cc(C(=O)O)c(NCc2ccco2)cc1Cl [FUROSEMIDE],Compound NOT metabolized,Bacterial Biotransformation [21]: Compound NOT metabolized; Bacterial Biotransformation [22]: Compound NOT metabolized; Bacterial Biotransformation [23]: Compound NOT metabolized; Bacterial Biotransformation [24]: Compound NOT metabolized; Bacterial Biotransformation [25]: Compound NOT metabolized; Bacterial Biotransformation [26]: Compound NOT metabolized; Bacterial Biotransformation [27]: Compound NOT metabolized; Bacterial Biotransformation [28]: Compound NOT metabolized; Bacterial Biotransformation [29]: Compound NOT metabolized; Bacterial Biotransformation [30]: Compound NOT metabolized
Compound metabolized,Compound NOT metabolized,Compound NOT metabolized,Compound metabolized,Compound NOT metabolized,Compound metabolized,Compound metabolized,Compound NOT metabolized,Compound NOT metabolized,Compound metabolized,Compound NOT metabolized,Compound NOT metabolized,Compound metabolized,Compound NOT metabolized,Compound NOT metabolized,Compound metabolized,Compound NOT metabolized,Compound NOT metabolized,Compound metabolized,C[C@]12CCC(=O)C=C1CC[C@@H]1[C@@H]2[C@@H](O)C[C@@]2(C)[C@H]1CC[C@]2(O)C(=O)CO [HYDROCORTISONE],Compound NOT metabolized,Bacterial Biotransformation [21]: Compound metabolized; Bacterial Biotransformation [22]: Compound NOT metabolized; Bacterial Biotransformation [23]: Compound NOT metabolized; Bacterial Biotransformation [24]: Compound NOT metabolized; Bacterial Biotransformation [25]: Compound NOT metabolized; Bacterial Biotransformation [26]: Compound NOT metabolized; Bacterial Biotransformation [27]: Compound NOT metabolized; Bacterial Biotransformation [28]: Compound metabolized; Bacterial Biotransformation [29]: Compound metabolized; Bacterial Biotransformation [30]: Compound NOT metabolized
Compound NOT metabolized,Compound NOT metabolized,Compound NOT metabolized,Compound metabolized,Compound NOT metabolized,Compound NOT metabolized,Compound metabolized,Compound NOT metabolized,Compound NOT metabolized,Compound NOT metabolized,Compound NOT metabolized,Compound NOT metabolized,Compound metabolized,Compound NOT metabolized,Compound NOT metabolized,Compound NOT metabolized,Compound NOT metabolized,Compound NOT metabolized,Compound NOT metabolized,CN(Cc1cnc2nc(N)nc(N)c2n1)c1ccc(C(=O)N[C@@H](CCC(=O)O)C(=O)O)cc1 [METHOTREXATE],Compound NOT metabolized,Bacterial Biotransformation [21]: Compound metabolized; Bacterial Biotransformation [22]: Compound metabolized; Bacterial Biotransformation [23]: Compound NOT metabolized; Bacterial Biotransformation [24]: Compound metabolized; Bacterial Biotransformation [25]: Compound NOT metabolized; Bacterial Biotransformation [26]: Compound NOT metabolized; Bacterial Biotransformation [27]: Compound NOT metabolized; Bacterial Biotransformation [28]: Compound metabolized; Bacterial Biotransformation [29]: Compound NOT metabolized; Bacterial Biotransformation [30]: Compound NOT metabolized
